This assay addresses T1, c-Met kinase (recombinant c-Met) (Homo sapiens, UniProt P08581).
T1 construct: 0.27 nM recombinant c-Met
The assay can be described thus: In vitro kinase assay I (homogeneous time-resolved fluorescence tyrosine kinase assay). It counts as biochemical. In a few lines:
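Biotinylated peptide (0.5 μM) phosphorylated by 0.2 nM recombinant c-Met with 50 μM MgATP, 60 min at room temperature, pH 7.4, 5% DMSO. EDTA stop; HTRF read with Eu-anti-phosphotyrosine antibody and streptavidin-APC. IC50 from 4-parameter logistic fit.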
T1 sequence (P08581 25-1390): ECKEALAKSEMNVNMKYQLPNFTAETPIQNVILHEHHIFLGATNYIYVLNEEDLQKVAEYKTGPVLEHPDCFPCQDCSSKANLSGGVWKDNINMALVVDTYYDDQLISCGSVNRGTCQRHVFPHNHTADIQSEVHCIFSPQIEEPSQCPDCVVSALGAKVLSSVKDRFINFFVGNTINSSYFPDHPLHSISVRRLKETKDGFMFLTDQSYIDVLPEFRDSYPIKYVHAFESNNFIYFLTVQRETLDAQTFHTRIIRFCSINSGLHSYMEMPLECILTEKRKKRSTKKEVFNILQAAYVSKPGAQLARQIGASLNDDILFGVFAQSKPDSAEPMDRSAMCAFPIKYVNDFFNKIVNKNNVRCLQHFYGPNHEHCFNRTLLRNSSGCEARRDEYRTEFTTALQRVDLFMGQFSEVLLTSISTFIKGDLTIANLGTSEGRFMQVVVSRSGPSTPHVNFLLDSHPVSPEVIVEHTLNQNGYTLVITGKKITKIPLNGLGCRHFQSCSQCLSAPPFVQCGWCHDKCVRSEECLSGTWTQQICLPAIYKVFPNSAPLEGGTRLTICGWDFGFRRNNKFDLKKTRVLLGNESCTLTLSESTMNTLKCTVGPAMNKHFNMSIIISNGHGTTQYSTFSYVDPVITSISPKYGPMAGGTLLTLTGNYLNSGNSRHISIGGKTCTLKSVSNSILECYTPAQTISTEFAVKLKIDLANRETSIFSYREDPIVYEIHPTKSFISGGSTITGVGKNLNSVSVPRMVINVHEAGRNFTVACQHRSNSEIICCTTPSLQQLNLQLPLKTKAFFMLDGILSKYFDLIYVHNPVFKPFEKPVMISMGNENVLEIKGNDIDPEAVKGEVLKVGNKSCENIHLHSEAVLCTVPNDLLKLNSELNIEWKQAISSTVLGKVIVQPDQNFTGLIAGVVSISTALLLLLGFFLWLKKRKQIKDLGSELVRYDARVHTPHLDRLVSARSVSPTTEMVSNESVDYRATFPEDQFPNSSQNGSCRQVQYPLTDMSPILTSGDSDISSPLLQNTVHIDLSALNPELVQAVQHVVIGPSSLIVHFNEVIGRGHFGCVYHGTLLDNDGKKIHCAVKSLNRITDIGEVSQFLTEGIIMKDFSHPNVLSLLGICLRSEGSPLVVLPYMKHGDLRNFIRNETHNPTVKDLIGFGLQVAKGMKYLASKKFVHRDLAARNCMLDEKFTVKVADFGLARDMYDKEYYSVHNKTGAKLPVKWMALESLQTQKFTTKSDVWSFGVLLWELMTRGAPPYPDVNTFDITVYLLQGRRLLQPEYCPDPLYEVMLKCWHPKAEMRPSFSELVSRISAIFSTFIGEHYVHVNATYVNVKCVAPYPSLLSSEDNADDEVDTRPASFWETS
As to `Cn1cc(-n2ccc(=O)c(Cc3cccc(-c4ncc(-c5ccnnc5)cn4)c3)n2)cn1` [Example 425, 1-(1-methyl-1H-pyrazol-4-yl)-3-[3-(5-pyridazin-4-ylpyrimidin-2-yl)benzyl]pyridazin-4(1H)-one], the 50% inhibitory concentration (IC50) (commonly the concentration needed to halve the response being measured) was less than 100 nM. Then `CC(C)COC(=O)Nc1cccc(Cc2nn(-c3cnn(C)c3)ccc2=O)c1` [Example 53, 2-methylpropyl (3-{[1-(1-methyl-1H-pyrazol-4-yl)-4-oxo-1,4-dihydropyridazin-3-yl]methyl}phenyl)carbamate], with less than 100 nM; and `COc1ccc(CNC(=O)Nc2cccc(Cc3nn(-c4cnn(C)c4)ccc3=O)c2)cc1` [Example 495, 1-(4-methoxybenzyl)-3-(3-{[1-(1-methyl-1H-pyrazol-4-yl)-4-oxo-1,4-dihydropyridazin-3-yl]methyl}phenyl)urea], with less than 100 nM. Then `CCCOC(=O)Nc1cccc(Cc2nn(-c3cnn(CCO)c3)ccc2=O)c1` [Example 644, propyl [3-({1-[1-(2-hydroxyethyl)-1H-pyrazol-4-yl]-4-oxo-1,4-dihydropyridazin-3-yl}methyl)phenyl] carbamate], with less than 100 nM; and `COCCOC(=O)Nc1cccc(C(C)c2nn(-c3cnn(C)c3)ccc2=O)c1` (single isomer, unassigned) [Example 653, 2-methoxyethyl (3-{(1R or S)-1-[1-(1-methyl-1H-pyrazol-4-yl)-4-oxo-1,4-dihydropyridazin-3-yl]ethyl}phenyl)carbamate], with 100 to 1000 nM.

Consider `COCCOC(=O)Nc1cccc(Cc2nn(-c3cc(F)cc(Cl)c3)ccc2=O)c1` [Example 509, 2-methoxyethyl (3-{[1-(3-chloro-5-fluorophenyl)-4-oxo-1,4-dihydropyridazin-3-yl]methyl}phenyl)carbamate], for which the concentration for half-maximal inhibition (IC50) was less than 100 nM. To `O=C(Nc1cccc(Cc2nn(-c3cc(F)cc(F)c3)ccc2=O)c1)OCCN1CCS(=O)(=O)CC1` [Example 517, 2-(1,1-dioxidothio-morpholin-4-yl)ethyl (3-{[1-(3,5-difluorophenyl)-4-oxo-1,4-dihydropyridazin-3-yl]methyl}phenyl)carbamate] belongs less than 100 nM. Then `Cn1cc(-n2ccc(=O)c(Cc3cccc(-c4nccs4)c3)n2)cn1` [Example 20, 1-(1-methyl-1H-pyrazol-4-yl)-3-[3-(1,3-thiazol-2-yl)benzyl]pyridazin-4(1H)-one], with 100 to 1000 nM; and `CCc1cnc(-c2cccc(C(C)c3nn(-c4cnn(C)c4)ccc3=O)c2)nc1` (single isomer, unassigned) [Example 236, 3-{(1S or R)-1-[3-(5-ethylpyrimidin-2-yl)phenyl]ethyl}-1-(1-methyl-1H-pyrazol-4-yl)pyridazin-4(1H)-one], with less than 100 nM; and `O=C(Nc1cccc(Cc2nn(-c3cc(F)cc(F)c3)ccc2=O)c1)OCCN1CCCC1=O` [Example 592, 2-(2-oxopyrrolidin-1-yl)ethyl (3-{[1-(3,5-difluorophenyl)-4-oxo-1,4-dihydropyridazin-3-yl]methyl}phenyl)carbamate], with less than 100 nM. To `CCn1cnc(-c2cccc(Cc3nn(-c4cnn(CCOCc5ccccc5)c4)ccc3=O)c2)n1` [Example 88, 1-{1-[2-(benzyloxy)ethyl]-1H-pyrazol-4-yl}-3-[3-(1-ethyl-1H-1,2,4-triazol-3-yl)benzyl]pyridazin-4(1H)-one] belongs 100 to 1000 nM.

Consider `CC(C)(O)CCOC(=O)Nc1cccc(Cc2nn(-c3cc(F)c(F)c(F)c3)ccc2=O)c1` [Example 514, 3-hydroxy-3-methylbutyl (3-{[4-oxo-1-(3,4,5-trifluorophenyl)-1,4-dihydropyridazin-3-yl]methyl}phenyl)carbamate], for which the IC50 was less than 100 nM. Then `COCCOc1cnc2ccc(Cc3nn(-c4cnn(C)c4)ccc3=O)cc2c1` [Example 61, 3-{[3-(2-methoxyethoxy)quinolin-6-yl]methyl}-1-(1-methyl-1H-pyrazol-4-yl)pyridazin-4(1H)-one], with 100 to 1000 nM; and `Cn1cc(-n2ccc(=O)c(Cc3cccc(-c4ncn(CCN5CCCC5=O)n4)c3)n2)cn1` [Example 718], with 100 to 1000 nM. Turning to `Cn1cc(-n2ccc(=O)c(Cc3cccc(-c4ncc(OCC5CCCO5)cn4)c3)n2)cn1` (racemic) [Example 260, rac-1-(1-methyl-1H-pyrazol-4-yl)-3-{3-[5-(tetrahydrofuran-2-ylmethoxy)pyrimidin-2-yl]benzyl}pyridazin-4(1H)-one], the IC50 was less than 100 nM. With `CCOC(=O)Nc1cccc(Cc2nn(-c3cnn(C4CCOCC4)c3)ccc2=O)c1` [Example 91, ethyl [3-({4-oxo-1-[1-(tetrahydro-2H-pyran-4-yl)-1H-pyrazol-4-yl]-1,4-dihydropyridazin-3-yl}methyl)phenyl]carbamate], the IC50 fell in the range of 100 to 1000 nM. To `[2H]C([2H])([2H])C([2H])([2H])Oc1cnc(-c2cccc(Cc3nn(-c4cnn(C)c4)ccc3=O)c2)nc1` [Example 275, 3-[3-(5-ethoxypyrimidin-2-yl)benzyl]-1-(1-methyl-1H-pyrazol-4-yl)pyridazin-4(1H)-one-d5] belongs less than 100 nM; to `CC(C)COC(=O)Nc1cccc(Cc2nn(-c3cnn(C(C)C)c3)ccc2=O)c1` [Example 105, 2-methylpropyl [3-({1-[1-(1-methylethyl)-1H-pyrazol-4-yl]-4-oxo-1,4-dihydropyridazin-3-yl}methyl)phenyl]carbamate], less than 100 nM.

Take `Cn1cc(-n2ccc(=O)c(Cc3cccc(-c4noc(CC5CCOCC5)n4)c3)n2)cn1` [Example 746]: the IC50 lay in the range of 100 to 1000 nM. Regarding `Cn1cc(-n2ccc(=O)c(Cc3cccc(-c4ncc(OCc5ccncc5)cn4)c3)n2)cn1` [Example 353, 1-(1-Methyl-1H-pyrazol-4-yl)-3-{3-[5(pyridin-4-ylmethoxy)pyrimidin-2-yl]benzyl}pyridazin-4(1H)-one], the IC50 is less than 100 nM.

Consider `COc1cnc(-c2cccc(Cc3nn(-c4cnn(C)c4)ccc3=O)c2)nc1` [Example 5, 3-[3-(5-Methoxypyrimidin-2-yl)benzyl]-1-(1-methyl-1H-pyrazol-4-yl)pyridazin-4(1H)-one], for which the IC50 was less than 100 nM. Then `Cn1cc(-n2ccc(=O)c(Cc3ccc4[nH]c(=O)[nH]c4c3)n2)cn1` [Example 23, 5-{[1-(1-methyl-1H-pyrazol-4-yl)-4-oxo-1,4-dihydropyridazin-3-yl]methyl}-1,3-dihydro-2H-benzimidazol-2-one], with 100 to 1000 nM; and `CCOc1cnc(-c2cccc(Cc3nn(-c4cnn(CCO)c4)ccc3=O)c2)nc1` [Example 193, 3-[3-(5-ethoxypyrimidin-2-yl)benzyl]-1-[1-(2-hydroxyethyl)-1H-pyrazol-4-yl]pyridazin-4(1H)-one], with less than 100 nM; and `CN(C)C(=O)CCOC(=O)Nc1cccc(Cc2nn(-c3cnn(C)c3)ccc2=O)c1` [Example 545, 3-(dimethylamino)-3-oxopropyl (3-{[1-(1-methyl-1H-pyrazol-4-yl)-4-oxo-1,4-dihydropyridazin-3-yl]methyl}phenyl)carbamate], with less than 100 nM. Then `O=C(Nc1cccc(Cc2nn(-c3cc(F)c(F)c(F)c3)ccc2=O)c1)OCCN1CCCC1=O` [Example 549, 2-(2-oxopyrrolidin-1-yl)ethyl (3-{[4-oxo-1-(3,4,5-trifluorophenyl)-1,4-dihydropyridazin-3-yl]methyl}phenyl)carbamate], with less than 100 nM. Then `CC(C)Cc1nc(-c2cccc(Cc3nn(-c4cnn(C)c4)ccc3=O)c2)no1` [Example 742, 3-{3-[5-(2-methylpropyl)-1,2,4-oxadiazol-3-yl]benzyl}-1-(1-methyl-1H-pyrazol-4-yl)pyridazin-4(1H)-one], with 100 to 1000 nM; and `CCn1cc(-n2ccc(=O)c(Cc3cccc(-c4ncc(OCC5(F)CCNCC5)cn4)c3)n2)cn1` [Example 335, 1-(1-ethyl-1H-pyrazol-4-yl)-3-(3-{5-[(4-fluoropiperidin-4-yl)methoxy]pyrimidin-2-yl}benzyl)pyridazin-4(1H)-one], with less than 100 nM. Regarding `CCOc1ccc(-c2cccc(Cc3nn(-c4cnn(C)c4)ccc3=O)c2)nc1` [Example 677], the concentration for half-maximal inhibition (IC50) is less than 100 nM. On to `CC1(COC(=O)Nc2cccc(Cc3nn(-c4cc(F)c(F)c(F)c4)ccc3=O)c2)COC1` [Example 560, (3-methyloxetan-3-yl)methyl (3-{[4-oxo-1-(3,4,5-trifluorophenyl)-1,4-dihydropyridazin-3-yl]methyl}phenyl)carbamate], for which the half-inhibitory concentration (IC50) is less than 100 nM. Regarding `CCCCc1nc(-c2cccc(Cc3nn(-c4cnn(C)c4)ccc3=O)c2)ncc1OCC` [Example 176, 3-[3-(4-butyl-5-ethoxypyrimidin-2-yl)benzyl]-1-(1-methyl-1H-pyrazol-4-yl)pyridazin-4(1H)-one], the IC50 was less than 100 nM. As for `O=c1ccn(-c2ccc(F)c(F)c2)nc1Cc1cccc(-c2ncc(O)cn2)c1` [Example 188, 1-(3,4-Difluorophenyl)-3-[3-(5-hydroxypyrimidin-2-yl)benzyl]pyridazin-4(1H)-one], the IC50 was in the range of 100 to 1000 nM.

For `CCOc1ccnc(-c2cccc(C(C)c3nn(-c4cnn(C)c4)ccc3=O)c2)n1` (racemic) [Example 678, rac-3-{1-[3-(4-Ethoxypyrimidin-2-yl)phenyl]ethyl}-1-(1-methyl-1H-pyrazol-4-yl)pyridazin-4(1H)-one], the 50% inhibitory concentration (IC50) is less than 100 nM. Regarding `O=c1ccn(-c2ccc(F)c(F)c2)nc1Cc1cccc(-c2ncc(OCC3COCCO3)cn2)c1` (single isomer, unassigned) [Example 346, 1-(3,4-difluorophenyl)-3-(3-{5-[(2S or R-1,4-dioxan-2-ylmethoxy]pyrimidin-2-yl}benzyl)pyridazin-4(1H)-one], the 50% inhibitory concentration (IC50) is less than 100 nM.

For the compound `CC(c1cccc(-c2ncc(Br)cn2)c1)c1nn(-c2cnn(C)c2)ccc1=O` (single isomer, unassigned) [Example 242, 3-{(1R or S)-1-[3-(5-bromopyrimidin-2-yl)phenyl]ethyl}-1-(1-methyl-1H-pyrazol-4-yl)pyridazin-4(1H)-one], the 50% inhibitory concentration (IC50) was less than 100 nM. Then `CCCc1nc(-c2cccc(Cc3nn(-c4cnn(C)c4)ccc3=O)c2)no1` [Example 740, 1-(1-methyl-1H-pyrazol-4-yl)-3-[3-(5-propyl-1,2,4-oxadiazol-3-yl)benzyl]pyridazin-4(1H)-one], with less than 100 nM.

The values above are taken from patent publication US20120264735A1 (priority 2009, published 2012).
